Measured values taken from ChEMBL document CHEMBL2346646, “Improving the inhibitory activity of arylidenaminoguanidine compounds at the N-methyl-D-aspartate receptor complex from a recursive computational-experimental structure-activity relationship study” (Bioorg Med Chem, 2013).

Molecular target: Glutamate [NMDA] receptor
Design: species or system Homo sapiens

Row | Structure (SMILES) | pIC50
1 | Cl.N=C(N)N/N=C/c1ccc([N+](=O)[O-])cc1 | 4.11
2 | CN(C)c1ccc(/C=N/NC(=N)N)cc1.Cl | 5.1
3 | COc1ccc(/C=N/NC(=N)N)c(OC)c1.Cl | 4.54
4 | Cl.N=C(N)N/N=C/c1cccc([N+](=O)[O-])c1 | 3.81
5 | Cl.N=C(N)N/N=C/C=C/c1ccccc1 | 4.23
6 | Cl.N=C(N)N/N=C/c1ccsc1 | 3.74
7 | Cc1ccc2cc(/C=N/NC(=N)N)[nH]c2c1.Cl | 4.48
8 | Cl.N=C(N)N/N=C/c1ccc2[nH]ccc2c1 | 4.3
9 | Cl.N=C(N)N/N=C/c1ccncc1 | 3.27
10 | Cl.N=C(N)N/N=C/c1cccnc1 | 3.17
11 | Cl.N=C(N)N/N=C/c1ccc[nH]1 | 4.02
12 | Cl.N=C(N)N/N=C/c1ccc(-c2ccc([N+](=O)[O-])cc2)o1 | 3.96
13 | Cl.N=C(N)N/N=C/c1ccc(F)cc1F | 4.26
14 | Cl.N=C(N)N/N=C/c1ccc(F)cc1 | 4.04
15 | Cl.N=C(N)N/N=C/c1cccc(Cl)c1 | 4.74
16 | Cl.N=C(N)N/N=C/c1ccccc1Cl | 5.15

Row | Structure (SMILES) | pIC50
17 | COc1ccc(/C=N/NC(=N)N)cc1[N+](=O)[O-].Cl | 5.11
18 | COc1ccc(/C=N/NC(=N)N)cc1O.Cl | 4.2
19 | Cl.N=C(N)N/N=C/c1ccc(N)cc1 | 3.96
20 | Cl.N=C(N)N/N=C/c1cccc(N)c1 | 3.65
21 | COc1ccc(/C=N/NC(=N)N)cc1.Cl | 4.42
22 | CC(C)c1ccc(/C=N/NC(=N)N)cc1.Cl | 5.22
23 | CCCCc1ccc(/C=N/NC(=N)N)cc1.Cl | 4.37
24 | CC(C)(C)c1ccc(/C=N/NC(=N)N)cc1.Cl | 4.64
25 | Cl.N#Cc1cccc(/C=N/NC(=N)N)c1 | 4.36
26 | Cl.N#Cc1ccc(/C=N/NC(=N)N)cc1 | 3.64
27 | COC(=O)c1cccc(/C=N/NC(=N)N)c1.Cl | 4.14
28 | COC(=O)c1ccc(/C=N/NC(=N)N)cc1.Cl | 4.15
29 | Cl.N=C(N)N/N=C/c1ccc2c(c1)OCO2 | 4.41
30 | Cl.Cl.N=C(N)N/N=C/c1ccc(/C=N/NC(=N)N)cc1 | 4.49
31 | Cl.N=C(N)N/N=C/c1ccc(Cl)cc1 | 5.44

Other lines, results leading:

Row | pIC50 | Structure (SMILES)
32 | 4.77 | COc1ccccc1/C=N/NC(=N)N.Cl
33 | 4.31 | Cl.Cn1c(/C=N/NC(=N)N)cc2ccccc21
34 | 4.24 | Cl.N=C(N)N/N=C/c1cc2ccccc2[nH]1
35 | 4.94 | Cc1ccc(/C=N/NC(=N)N)c2ccccc12.Cl
36 | 4.58 | Cc1ccc2ccccc2c1/C=N/NC(=N)N.Cl
37 | 5.06 | Cl.N=C(N)N/N=C/c1ccc2ccccc2c1
38 | 4.57 | Cl.N=C(N)N/N=C/c1cccc2ccccc12
39 | 5.07 | Cl.N=C(N)N/N=C/c1ccccc1-c1ccccc1
40 | 4.13 | Cl.N=C(N)N/N=C/c1ccccc1F
41 | 4.99 | Cl.N=C(N)N/N=C/c1ccc(Cl)cc1Cl
42 | 3.67 | Cl.N=C(N)N/N=C/c1ccc(O)cc1O
43 | 4.6 | Cl.N=C(N)N/N=C/c1ccccc1C(F)(F)F
44 | 4.14 | Cl.N=C(N)N/N=C/c1ccccc1
45 | 4.09 | Cc1ccc(/C=N/NC(=N)N)cc1.Cl
